ChEMBL document CHEMBL1201862, “PubChem BioAssay data set” (2004)
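Growth conditions: 96-well plates. Treatment: test compound, 48 hours, 5 concentrations. Analysis: linear interpolation between bracketing concentrations; unreached endpoints set to highest concentration. Abbreviation: GI50, concentration required for 50% inhibition of growth.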 Activity calls are given as the source filed them. Cut-off read from the data, not from the text of the source: active = GI50 up to about 1.1 µM and inactive = higher.

Experiments:
Test in all cases: inhibition of tumour cell growth, NCI panel, 48 h
A498 = tested on: A498
ACHN = tested on: ACHN
CAKI-1 = tested on: CAKI-1
HCT-116 = tested on: HCT-116
HL-60 = tested on: HL-60
IGROV-1 = tested on: IGROV-1
K562 = tested on: K562
LOX IMVI = tested on: LOX IMVI
NCI-H23 = tested on: NCI-H23
NCI-H460 = tested on: NCI-H460
NCI-H522 = tested on: NCI-H522
RPMI-8226 = tested on: RPMI-8226
SK-MEL-28 = tested on: SK-MEL-28
SK-MEL-5 = tested on: SK-MEL-5
SN12C = tested on: SN12C
SW-620 = tested on: SW-620
TK-10 = tested on: TK-10
OVCAR-4 = tested on: OVCAR-4

Row | SMILES | GI50 (A498) | GI50 (ACHN) | GI50 (CAKI-1) | GI50 (HCT-116) | GI50 (HL-60) | GI50 (IGROV-1) | GI50 (K562) | GI50 (LOX IMVI) | GI50 (NCI-H23) | GI50 (NCI-H460) | GI50 (NCI-H522) | GI50 (RPMI-8226) | GI50 (SK-MEL-28) | GI50 (SK-MEL-5) | GI50 (SN12C) | GI50 (SW-620) | GI50 (TK-10) | GI50 (OVCAR-4)
1 | c1ccc2c(c1)CCc1c(-c3ccncc3)n[nH]c1-2 | 25.9 µM (inactive) | 26.5 µM (inactive) | 19.8 µM (inactive) | 22.2 µM (inactive) | 34.3 µM (inactive) | 26.4 µM (inactive) | 48.2 µM (inactive) | 23.3 µM (inactive) | 19.4 µM (inactive) | 32.1 µM (inactive) | > 10 µM (inactive) | 26.5 µM (inactive) | 23.8 µM (inactive) | 18 µM (inactive) | 43.5 µM (inactive) | 39.7 µM (inactive) | 29.8 µM (inactive) | 
2 | O=C(O)C1=C(C(=O)Nc2ccccc2)C2C=CC1C2 (stereo not drawn) | > 100 µM (inactive) | > 100 µM (inactive) |  | > 100 µM (inactive) | > 100 µM (inactive) | > 100 µM (inactive) | > 100 µM (inactive) | > 100 µM (inactive) | > 100 µM (inactive) | > 100 µM (inactive) |  | > 100 µM (inactive) | > 100 µM (inactive) | > 100 µM (inactive) | > 100 µM (inactive) | > 100 µM (inactive) | > 100 µM (inactive) | > 100 µM (inactive)
3 | OC1(c2ccccc2)OC(C#Cc2ccccc2)(c2ccccc2)c2ccccc21 (stereo not drawn) | 2.82 µM (inactive) |  | 3.85 µM (inactive) | 1.7 µM (inactive) | 2.58 µM (inactive) | 11 µM (inactive) | 3.55 µM (inactive) | 2.91 µM (inactive) | 3.47 µM (inactive) | 4.47 µM (inactive) | 7.48 µM (inactive) | 1.94 µM (inactive) |  | 7.89 µM (inactive) | 3.25 µM (inactive) | 4.12 µM (inactive) | 13.3 µM (inactive) | 2.82 µM (inactive)
4 | CCOC(=O)c1c2cccccc2n2c(=O)cc(C)nc12 | > 100 µM (inactive) | > 100 µM (inactive) | > 100 µM (inactive) |  | > 100 µM (inactive) | > 100 µM (inactive) | > 100 µM (inactive) | > 100 µM (inactive) | > 100 µM (inactive) | > 100 µM (inactive) | > 100 µM (inactive) | > 100 µM (inactive) | > 100 µM (inactive) |  | > 100 µM (inactive) | > 100 µM (inactive) | > 100 µM (inactive) | > 100 µM (inactive)
5 | O=C(CC(=O)c1ccccc1)C(=O)Nc1ccc(Cl)cc1 | > 100 µM (inactive) | > 100 µM (inactive) | > 100 µM (inactive) | > 42.8 µM (inactive) | > 100 µM (inactive) | > 100 µM (inactive) | > 85.5 µM (inactive) | > 42 µM (inactive) | > 100 µM (inactive) | > 39.5 µM (inactive) | 97.9 µM (inactive) | > 100 µM (inactive) | > 100 µM (inactive) | > 100 µM (inactive) | > 100 µM (inactive) | > 42.8 µM (inactive) | > 100 µM (inactive) | > 100 µM (inactive)
6 | CC(C)(C)c1cc(CCC(=O)Nc2ccc(Cl)cc2Cl)nc(N)n1 |  | > 100 µM (inactive) | > 100 µM (inactive) | > 100 µM (inactive) | > 100 µM (inactive) | > 100 µM (inactive) | > 100 µM (inactive) | > 100 µM (inactive) | > 100 µM (inactive) | > 100 µM (inactive) |  |  | > 100 µM (inactive) | > 100 µM (inactive) | > 100 µM (inactive) | > 100 µM (inactive) |  | > 100 µM (inactive)
7 | O=C1CNS(=O)(=O)N1 | > 100 µM (inactive) |  | > 100 µM (inactive) | > 100 µM (inactive) | > 100 µM (inactive) | > 100 µM (inactive) | > 100 µM (inactive) |  | > 100 µM (inactive) |  | > 100 µM (inactive) | > 100 µM (inactive) | > 100 µM (inactive) |  | > 100 µM (inactive) | > 100 µM (inactive) | > 100 µM (inactive) | > 100 µM (inactive)
8 | Cc1ccc(NC(=O)CC2SC(Nc3cccc(Cl)c3C)=NC2=O)cc1 (stereo not drawn) | 33 µM (inactive) | 41 µM (inactive) | 71.4 µM (inactive) |  |  | 94.8 µM (inactive) | 34.6 µM (inactive) | > 100 µM (inactive) | 28.6 µM (inactive) | 96.6 µM (inactive) |  | 28.2 µM (inactive) | 40.9 µM (inactive) | 29.6 µM (inactive) | 50.9 µM (inactive) | 68.5 µM (inactive) | 92 µM (inactive) | 28.7 µM (inactive)
9 | CC1CCCC(C(=O)/C(=C/c2cccc(Cl)c2)C(=O)C(=O)O)C1 (stereo not drawn) | > 100 µM (inactive) | 39.4 µM (inactive) | 33.3 µM (inactive) | 13.8 µM (inactive) | 20 µM (inactive) | 30.9 µM (inactive) | 19.5 µM (inactive) |  | 39.5 µM (inactive) | 33 µM (inactive) | 0.0161 µM (active) | 14.7 µM (inactive) | 37 µM (inactive) | 68.2 µM (inactive) | 72.1 µM (inactive) | 14.5 µM (inactive) | > 100 µM (inactive) | 37.8 µM (inactive)
